The subject of assay [1] is Haemophilus influenzae. As to the kind of experiment: Bauer-Kirby Disk Susceptibility testing on the culture medium of Example 1. The assay is classed as cell-based. As to conditions: for Observed Disk Diff. Breakpoints I: I = intermediate; for Observed Disk Diff. Breakpoints R: R = resistant; for Observed Disk Diff. Breakpoints S: S = susceptible. The source says:
(§1) The culture medium of the invention was used in both Minimum Inhibitory Concentration (MIC) testing and Bauer-Kirby Disk Susceptibility testing for the pathogenic bacteria noted in the table below with the antimicrobial agents noted therein using the protocol and standards set forth in NCCLS Bulletin No. M2-A7 and in the Supplemental Tables appendix thereto, the disclosures of which are incorporated herein by reference.
(§2) The general procedure was as follows: pathogenic bacteria specimens were obtained from American Type Culture Collection control lots and 10 isolates were obtained from all species except Campylobacter, from which 6 isolates were obtained. Petri dishes 150 mm in diameter were autoclaved and filled with the culture medium of Example 1 and brought to room temperature. Each plate was then swab-inoculated with a suspension of one of the pathogenic bacteria equivalent to a 0.5 McFarland Standard, and then the antimicrobial-impregnated disk or antimicrobial-impregnated strip for IC measurement (Etest strip from Biodisk AB, of Solna, Sweden) were pressed into the surface of the culture medium. The plates were incubated at 35° C. for 24 hours in atmospheres containing 5-7% CO2 and the disk diffusion zones were measured, with the exception that plates inoculated with the Campylobacter species were placed into microaerophilic chambers from Mitsubishi Gas & Chemical Co. of Japan and incubated at 35° C. for 48 hours. The tests were conducted in duplicate for each pathogenic bacteria/antimicrobial agent combination on three batches of the culture medium of Example 1, for a total of six tests for each combination. Geometric mean MIC values and arithmetic mean values of zone diameters from the Disk Diffusion tests were calculated from the data, and are reported in the table below.

For assay [2], the system named is Haemophilus influenzae. As to conditions: different known culture media; cited from earlier work.
In assay [3] the test system is Haemophilus influenzae. The experiment in a line: MIC testing (Etest strip) on the culture medium of Example 1. It counts as cell-based. As to conditions: for Observed MIC Breakpoints I: I = intermediate; for Observed MIC Breakpoints R: R = resistant; for Observed MIC Breakpoints S: S = susceptible.
Text: as §1, §2

In assay [4] the test system is Viridans streptococci. As to the kind of experiment: Bauer-Kirby Disk Susceptibility testing on the culture medium of Example 1. The assay is classed as cell-based. As to conditions: for Observed Disk Diff. Breakpoints R: R = resistant; for Observed Disk Diff. Breakpoints S: S = susceptible; for Observed Disk Diff. Breakpoints I: I = intermediate.
Text: as §1, §2

For assay [5], the system named is S. pneumoniae. Described as above. It counts as cell-based. As to conditions: for Observed Disk Diff. Breakpoints R: R = resistant; for Observed Disk Diff. Breakpoints S: S = susceptible; for Observed Disk Diff. Breakpoints I: I = intermediate.
Text: as §1, §2

Assay [6] has as its system S. pneumoniae. As to conditions: different known culture media, cited from earlier work.
Assay [7] relates to Viridans streptococci. The experiment in a line: MIC testing (Etest strip) on the culture medium of Example 1. As to conditions: for Observed MIC Breakpoints R: R = resistant; for Observed MIC Breakpoints I: I = intermediate; for Observed MIC Breakpoints S: S = susceptible. It counts as cell-based.
Text: as §1, §2

Assay [8] relates to S. pneumoniae. Described as above. It counts as cell-based. As to conditions: for Observed MIC Breakpoints R: R = resistant; for Observed MIC Breakpoints S: S = susceptible; for Observed MIC Breakpoints I: I = intermediate.
Text: as §1, §2

The test system of assay [9] is Viridans streptococci. As to conditions: different known culture media; cited from earlier work.
Assay [10] deals with Neisseria gonorrhoeae. As to conditions: different known culture media; cited from earlier work.
Assay [11] has as its system Neisseria gonorrhoeae. The experiment in a line: Bauer-Kirby Disk Susceptibility testing on the culture medium of Example 1. It counts as cell-based. As to conditions: for Observed Disk Diff. Breakpoints I: I = intermediate; for Observed Disk Diff. Breakpoints R: R = resistant.
Text: as §1, §2

The test system of assay [12] is Campylobacter species. The description is as above. The assay is classed as cell-based. As to conditions: microaerophilic, 48 hours; for Observed Disk Diff. Breakpoints R: R = resistant; for Observed Disk Diff. Breakpoints S: S = susceptible.
Text: as §1, §2

The test system of assay [13] is Neisseria gonorrhoeae. The experiment in a line: MIC testing (Etest strip) on the culture medium of Example 1. The assay is classed as cell-based. As to conditions: for Observed MIC Breakpoints I: I = intermediate; for Observed MIC Breakpoints R: R = resistant; for Observed MIC Breakpoints S: S = susceptible.
Text: as §1, §2

The subject of assay [14] is Campylobacter species. The description is as above. The assay is classed as cell-based. As to conditions: microaerophilic, 48 hours; for Observed MIC Breakpoints R: R = resistant; for Observed MIC Breakpoints S: S = susceptible.
Text: as §1, §2

Assay [15] relates to β-hemolytic streptococci. As to the kind of experiment: Bauer-Kirby Disk Susceptibility testing on the culture medium of Example 1. It counts as cell-based. As to conditions: for Observed Disk Diff. Breakpoints R: R = resistant.
Text: as §1, §2

The test system of assay [16] is β-hemolytic streptococci. As to conditions: different known culture media; cited from earlier work.
For assay [17], the system named is β-hemolytic streptococci. As to the kind of experiment: MIC testing (Etest strip) on the culture medium of Example 1. As to conditions: for Observed MIC Breakpoints S: S = susceptible. It counts as cell-based.
Text: as §1, §2

Assay [18] has as its system Neisseria meningitides. As to the kind of experiment: Bauer-Kirby Disk Susceptibility testing on the culture medium of Example 1. The assay is classed as cell-based.
Text: as §1, §2

Assay [19] deals with Neisseria meningitides. The experiment in a line: MIC testing (Etest strip) on the culture medium of Example 1. It counts as cell-based.
Text: as §1, §2

Read-outs that look alike come from different tables or passages of the source.

Consider `CC1(C)S[C@@H]2[C@H](NC(=O)[C@H](N)c3ccccc3)C(=O)N2[C@H]1C(=O)O` [Ampicillin], for which, in assay [1], the “Observed Disk Diff. Breakpoints I” value was 13-16 mm, the “Observed Disk Diff. Breakpoints R” value was “≦12 mm” and the “Observed Disk Diff. Breakpoints S” value is recorded as “≧17 mm”. In addition, the “Reported MIC Breakpoints” value in assay [2] is recorded as “(1-4) μg/mL”. Also, in assay [3], the “Observed MIC Breakpoints I” value is 8 µg/mL, the “Observed MIC Breakpoints R” value is “≧16 μg/mL” and the “Observed MIC Breakpoints S” value was “≦4 μg/mL”.
In the case of `CO/N=C(\C(=O)N[C@@H]1C(=O)N2C(C(=O)O)=C(COC(C)=O)CS[C@H]12)c1csc(N)n1` [Cefotaxime], the entries for the “Observed Disk Diff. Breakpoints R” value in assay [4], in assay [5] (Lower Respiratory Tract) and in [5] (meningitis) were “≦23 mm”, “≦23 mm” and “≦25 mm”, respectively. The “Observed Disk Diff. Breakpoints S” value in assay [4] was “≧24 mm”; in assay [5] (Lower Respiratory Tract), “≧24 mm”; in [5] (meningitis), “≧28 mm”. For the same molecule, in assay [5] (meningitis), the “Observed Disk Diff. Breakpoints I” value is given as 26-27 mm. Also, the “Reported MIC Breakpoints” value in assay [6] (meningitis) and in assay [9] was “(0.5-2) μg/mL” each time. For the same molecule, the entries for the “Observed MIC Breakpoints R” value in assay [7], in [8] (Lower Respiratory Tract) and in assay [8] (meningitis) were “≧8 μg/mL”, “≧8 μg/mL” and “≧2 μg/mL”, respectively. In addition, the “Observed MIC Breakpoints S” value in [8] (Lower Respiratory Tract) is reported as “≦4 μg/mL”; in assay [8] (meningitis), “≦0.5 μg/mL”. The “Observed MIC Breakpoints I” value in assay [8] (meningitis) was 1 µg/mL.
For the molecule `O=C(N[C@H](CO)[C@H](O)c1ccc([N+](=O)[O-])cc1)C(Cl)Cl` [Chloramphenicol], in [1], the “Observed Disk Diff. Breakpoints I” value is reported as 20-24 mm, the “Observed Disk Diff. Breakpoints R” value was “≦19 mm” and the “Observed Disk Diff. Breakpoints S” value was “≧25 mm”. Further, in assay [2], the “Reported MIC Breakpoints” value was “(2-8) μg/mL”. In assay [3], the “Observed MIC Breakpoints I” value stood at 4 µg/mL, the “Observed MIC Breakpoints R” value was “≧8 μg/mL” and the “Observed MIC Breakpoints S” value was “≦2 μg/mL”.
Take `O=C(O)c1cn(C2CC2)c2cc(N3CCNCC3)c(F)cc2c1=O` [Ciprofloxacin]: the “Reported MIC Breakpoints” value in assay [10] is on record as “(0.06-1) μg/mL”. Besides, the “Observed Disk Diff. Breakpoints I” value in assay [11] is reported as 25-34 mm; in assay [12] (I = intermediate), 19-26 mm. Further, the “Observed Disk Diff. Breakpoints R” value in assay [11] is given as “≦24 mm”; in assay [12], “≦18 mm”. The “Observed Disk Diff. Breakpoints S” value is “≧35 mm” in [11] (S = susceptible) and “≧27 mm” in assay [12]. In addition, the “Observed MIC Breakpoints I” value in assay [13] was 0.12 to 0.5 µg/mL; in assay [14] (I = intermediate), 1 to 2 µg/mL. Also, the “Observed MIC Breakpoints R” value in [13] is reported as “≧1 μg/mL”; in assay [14] it was “≧4 μg/mL”. Also, the “Observed MIC Breakpoints S” value is reported as “≦0.06 μg/mL” in [13] and “≦0.5 μg/mL” in [14].
As to `CC[C@H]1OC(=O)[C@H](C)[C@@H](O[C@H]2C[C@@](C)(OC)[C@@H](O)[C@H](C)O2)[C@H](C)[C@@H](O[C@@H]2O[C@H](C)C[C@H](N(C)C)[C@H]2O)[C@](C)(O)C[C@@H](C)C(=O)[C@H](C)[C@@H](O)[C@]1(C)O` [Erythromycin], the “Observed Disk Diff. Breakpoints I” value in assay [4] and in assay [5] was 9-23 mm in each case. For the same molecule, the “Observed Disk Diff. Breakpoints R” value is on record as “≦8 mm” in [4], “≦20 mm” in [12], “≦8 mm” in [5] and “≦8 mm” in assay [15]. In addition, the “Observed Disk Diff. Breakpoints S” value in assay [4] is on record as “≧24 mm”; in [12] it was “≧21 mm”; in assay [5] it was “≧24 mm”; in [15] (S = susceptible) it was “≧21 mm”. The “Reported MIC Breakpoints” value in assay [6], in [16] and in assay [9] was “(0.25-1) μg/mL” each time. The “Observed MIC Breakpoints I” value in [7], in assay [8] and in assay [17] (I = intermediate) was 1 to 32 µg/mL each time. Further, the “Observed MIC Breakpoints R” value is given as “≧64 μg/mL” in assay [7], “≧8 μg/mL” in [14], “≧64 μg/mL” in assay [8] and “≧64 μg/mL” in assay [17] (R = resistant). Moreover, the “Observed MIC Breakpoints S” value is on record as “≦0.5 μg/mL” in [7], “≦4 μg/mL” in assay [14], “≦0.5 μg/mL” in assay [8] and “≦0.5 μg/mL” in assay [17].
Consider `CN(C)[C@@H]1C(O)=C(C(N)=O)C(=O)[C@@]2(O)C(O)=C3C(=O)c4c(O)cccc4[C@@](C)(O)[C@H]3C[C@@H]12` [Tetracycline], for which the “Observed Disk Diff. Breakpoints I” value in assay [4] is 18-22 mm; in [1] it was 19-24 mm; in [5], 14-22 mm. The figures for the “Observed Disk Diff. Breakpoints R” value in assay [4], in assay [1] and in [5] were “≦17 mm”, “≦20 mm” and “≦13 mm”, respectively. The “Observed Disk Diff. Breakpoints S” value in assay [4] is listed as “≧23 mm”; in assay [1], “≧25 mm”; in assay [5], “≧23 mm”. The “Observed MIC Breakpoints I” value in [7] was 2 to 4 µg/mL; in [3], 4 µg/mL; in assay [8], 2 to 4 µg/mL. For the same molecule, the “Observed MIC Breakpoints R” value in assay [7], in assay [3] and in [8] was “≧8 μg/mL” in each case. In addition, the figures for the “Observed MIC Breakpoints S” value in [7], in assay [3] and in [8] were “≦1 μg/mL”, “≦2 μg/mL” and “≦1 μg/mL”, respectively.
Penicillin: the “Reported MIC Breakpoints” value is recorded as “(0.06-2) μg/mL” in assay [10], “(0.06-2) μg/mL” in assay [6] (meningitis) and “(0.12-4) μg/mL” in [9]. Also, the “Observed Disk Diff. Breakpoints I” value in assay [11] is listed as 24-38 mm; in assay [4] it was 20-23 mm; in assay [18] (I = intermediate) it was 24-25 mm. Also, the “Observed Disk Diff. Breakpoints R” value in [11] is listed as “≦23 mm”; in [4], “≦19 mm”; in [18] (R = resistant), “≦23 mm”; in assay [15] it was “≦26 mm”. The “Observed Disk Diff. Breakpoints S” value in assay [4] is “≧24 mm”; in assay [18] (S = susceptible) it was “≧26 mm”. The “Observed MIC Breakpoints I” value was 0.12 to 1 µg/mL in [13]; 2 µg/mL in [7]; 0.25 µg/mL in [19] (I = intermediate); 2 µg/mL in [8] (Lower Respiratory Tract); 0.25 to 1 µg/mL in [8] (meningitis). Also, the “Observed MIC Breakpoints R” value is reported as “≧2 μg/mL” in assay [13]; “≧4 μg/mL” in [7]; “≧0.5 μg/mL” in assay [19] (R = resistant); “≧4 μg/mL” in [8] (Lower Respiratory Tract); “≧2 μg/mL” in assay [8] (meningitis). Further, the “Observed MIC Breakpoints S” value in assay [13] was “≦0.06 μg/mL”; in [7] it was “≦1 μg/mL”; in assay [19] (S = susceptible), “≦0.12 μg/mL”; in [8] (Lower Respiratory Tract), “≦1 μg/mL”; in [8] (meningitis) it was “≦0.12 μg/mL”; in [17], 0.12 µg/mL.

These data come from US6555333B1, “Broad spectrum fastidious organism culture medium” (priority 2002, dated 2003).
